How the values were obtained:
Assay in all cases: Post emergence treatment, greenhouse pot test, herbicidal activity
Type in all cases: in vivo
Details in all cases: scale 0 to 100
AVEFA (Avena fatua) = tested on: AVEFA (Avena fatua)
Procedure: (§1) The analysis of synergism or antagonism between the mixtures or compositions was determined using Colby's equation.
(§2) The culture containers used were plastic flowerpots containing loamy sand with approximately 3.0% of humus as the substrate. The seeds of the test plants were sown separately for each species and/or resistant biotype. […] The containers were irrigated gently to promote germination and growth and subsequently covered with transparent plastic hoods until the plants had rooted. This cover caused uniform germination of the test plants, unless this had been impaired by the active ingredients. […] For this purpose, the test plants were either sown directly and grown in the same containers, or they were first grown separately as seedlings and transplanted into the test containers a few days prior to treatment. Depending on the species, the plants were kept at 10-25° C. or 20-35° C., respectively. The test period extended to 20 days after treatment. During this time, the plants were tended, and their response to the individual treatments was evaluated. The evaluation was carried out by using a scale from 0 to 100. 100 means no emergence of the plants or complete destruction of at least the above-ground parts, and 0 means no damage, or normal course of growth. Data shown are the mean of two replications.

SETVI (Setaria viridis) = tested on: SETVI (Setaria viridis)
Procedure: as §1, §2

KCHSC (Kochia scoparia) = tested on: KCHSC (Kochia scoparia)
Procedure: as §1, §2

[1] = tested on: ABUTH (Abutilon theophrasti)
Procedure: as §1, §2

[2] = tested on: COMBE (Commelina benghalensis)
Procedure: as §1, §2

[3] = tested on: CHEAL (Chenopodium album)
Procedure: as §1, §2

[4] = tested on: ECHCG (Echinochloa crus-galli)
Procedure: as §1, §2

[5] = 2,4-D as dimethylammonium salt 70 g ai/ha
[6] = 2,4-D as dimethylammonium salt 140 g ai/ha

## CNC.O=C(O)COc1ccc(Cl)cc1Cl [2,4-D as dimethylammonium salt, 2,4-D dimethylammonium salt]
AVEFA (Avena fatua); [5]
  Herbicidal activity against AVEFA, Found: 0
AVEFA (Avena fatua); [6]
  Herbicidal activity against AVEFA, Found: 0
SETVI (Setaria viridis); [5]
  Herbicidal activity against SETVI, Found: 0
SETVI (Setaria viridis); [6]
  Herbicidal activity against SETVI, Found: 0

## COC[C@H](C)N(C(=O)CCl)c1c(C)csc1C [Dimethenamid-P]
KCHSC (Kochia scoparia); Dimethenamid-P 500 g ai/ha
  Herbicidal activity against KCHSC, Found: 0
KCHSC (Kochia scoparia); Dimethenamid-P 1000 g ai/ha
  Herbicidal activity against KCHSC, Found: 70

## CP(=O)(O)CC[C@H](N)C(=O)O [L-Glufosinate, (2S)-2-amino-4-[hydroxy(methyl)phosphinoyl]butyric acid]
[1]; L-Glufosinate 75 g ai/ha
  Herbicidal activity against ABUTH, Found: 0
[1]; L-Glufosinate 150 g ai/ha
  Herbicidal activity against ABUTH, Found: 55
[1]; L-Glufosinate 200 g ai/ha
  Herbicidal activity against ABUTH, Found: 65
AVEFA (Avena fatua); L-Glufosinate 75 g ai/ha
  Herbicidal activity against AVEFA, Found: 0
AVEFA (Avena fatua); L-Glufosinate 150 g ai/ha
  Herbicidal activity against AVEFA, Found: 0
[2]; L-Glufosinate 100 g ai/ha
  Herbicidal activity against COMBE, Found: 0

## CCOCCN(C(=O)CCl)C(=C(C)C)c1ccccc1 [Pethoxamid, pethoxamid]
[1]; Pethoxamid 50 g ai/ha
  Herbicidal activity against ABUTH, Found: 0
[1]; Pethoxamid 100 g ai/ha
  Herbicidal activity against ABUTH, Found: 0
AVEFA (Avena fatua); Pethoxamid 50 g ai/ha
  Herbicidal activity against AVEFA, Found: 0
AVEFA (Avena fatua); Pethoxamid 100 g ai/ha
  Herbicidal activity against AVEFA, Found: 0

## CCc1cccc(C)c1N(C(=O)CCl)[C@@H](C)COC [S-Metolachlor, S-metolachlor]
[3]; S-Metolachlor 500 g ai/ha
  Herbicidal activity against CHEAL, Found: 20
[3]; S-Metolachlor 1000 g ai/ha
  Herbicidal activity against CHEAL, Found: 75

## C#CCN1C(=O)C(F)(F)Oc2cc(F)c(-n3c(=O)n(C)c(=S)n(C)c3=O)cc21 [Trifludimoxazin, trifludimoxazin]
[4]; Trifludimoxazin 0.25 g ai/ha
  Herbicidal activity against ECHCG, Found: 10

## Dicamba dimethylammonium salt [Dicamba as dimethylammonium salt]
SETVI (Setaria viridis); Dicamba as dimethylammonium salt 35 g ai/ha
  Herbicidal activity against SETVI, Found: 0
SETVI (Setaria viridis); Dicamba as dimethylammonium salt 70 g ai/ha
  Herbicidal activity against SETVI, Found: 0
SETVI (Setaria viridis); Dicamba as dimethylammonium salt 140 g ai/ha
  Herbicidal activity against SETVI, Found: 30

## bicyclopyrone
[2]; Bicyclopyrone 1 g ai/ha
  Herbicidal activity against COMBE, Found: 0
[2]; Bicyclopyrone 2 g ai/ha
  Herbicidal activity against COMBE, Found: 10
[4]; Bicyclopyrone 1 g ai/ha
  Herbicidal activity against ECHCG, Found: 0
[4]; Bicyclopyrone 2 g ai/ha
  Herbicidal activity against ECHCG, Found: 0
